Patent publication US20090042964A1, “AMINO-5-[SUBSTITUTED-4-(DIFLUOROMETHOXY)PHENYL]-5-PHENYLIMIDAZOLONE COMPOUNDS AS BETA-SECRETASE INHIBITORS” (Wyeth, priority 2007, published 2009)

target: human BACE1 (Homo sapiens, UniProt P56817); assay: Fluorescent kinetic assay, evaluation of BACE1 binding affinity of test compounds; type: biochemical; details: 10 nM human BACE1, 25 μM substrate WABC-6, pH 4.5, room temperature; read-out: BACE1 IC50
Procedure: Concentration is determined by absorbance at 354 nm using an extinction coefficient of 18172 M^-1 cm^-1, the concentration of stock substrate is corrected, and the substrate stock stored in small aliquots in -80° C. […] Determination of Stock Enzyme Concentration: the stock concentration of each enzyme is determined by absorbance at 280 nm using an of 64150 M^-1 cm^-1 for hBACE1 and MuBACE1, 62870 M^-1 cm^-1 for hBACE2 in 6 M Guanidinium Hydrochloride (from Research Organics, Cat. # 5134G-2), pH 6. […] Biochem. 182, 319-326). Dilution and mixing steps: total reaction volume: 100 μL 2× inhibitor dilutions in buffer A (66.7 mM Na-Acetate, pH 4.5, 0.0667% CHAPS) were prepared, 4× enzyme dilution in buffer A (66.7 mM Na-Acetate, pH 4.5, 0.0667% CHAPS) were prepared, 100 μM substrate dilution in 1×PBS was prepared, and 50 μL 2× Inhibitor, 25 μL 100 μM substrate are added to each well of 96-well plate (from DYNEX Technologies, VWR #: 11311-046), immediately followed by 25 μL 4× enzyme (added to the inhibitor and substrate mix), and the fluorescence readings are initiated.

Sequence of human BACE1 (P56817 46-501): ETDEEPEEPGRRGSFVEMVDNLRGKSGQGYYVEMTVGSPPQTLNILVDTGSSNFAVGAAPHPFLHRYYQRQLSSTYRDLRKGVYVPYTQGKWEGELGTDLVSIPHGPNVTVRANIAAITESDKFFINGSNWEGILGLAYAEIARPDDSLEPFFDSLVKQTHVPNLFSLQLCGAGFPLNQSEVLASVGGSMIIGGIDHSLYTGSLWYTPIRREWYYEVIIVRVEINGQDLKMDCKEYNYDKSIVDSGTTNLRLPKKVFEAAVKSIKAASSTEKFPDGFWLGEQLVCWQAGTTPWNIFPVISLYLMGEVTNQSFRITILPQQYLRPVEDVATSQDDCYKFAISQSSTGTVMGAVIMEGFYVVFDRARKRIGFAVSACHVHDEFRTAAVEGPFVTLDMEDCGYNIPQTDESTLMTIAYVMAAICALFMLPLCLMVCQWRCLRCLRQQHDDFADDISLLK

IC50 [nM] | Compound
110 to 1000 | CCOc1cccc(C2(c3ccc(OC(F)F)c(Cl)c3)N=C(N)N(C)C2=O)c1 (stereo not shown) [Example 36, 2-Amino-5-[3-chloro-4-(difluoromethoxy)phenyl]-5-(3-ethoxyphenyl)-3-methyl-3,5-dihydro-4H-imidazol-4-one]
< 100 | CN1C(=O)C(c2cccc(OCCF)c2)(c2ccc(OC(F)F)c(Cl)c2)N=C1N (stereo not shown) [Example 37, 2-Amino-5-[3-chloro-4-(difluoromethoxy)phenyl]-5-[3-(2-fluoroethoxy)phenyl]-3-methyl-3,5-dihydro-4H-imidazol-4-one]
< 100 | CN1C(=O)C(c2cccc(OCC(F)F)c2)(c2ccc(OC(F)F)c(Cl)c2)N=C1N (stereo not shown) [Example 38, 2-Amino-5-[3-chloro-4-(difluoromethoxy)phenyl]-5-[3-(2,2-difluoroethoxy)phenyl]-3-methyl-3,5-dihydro-4H-imidazol-4-one]
< 100 | CCCOc1cccc(C2(c3ccc(OC(F)F)c(Cl)c3)N=C(N)N(C)C2=O)c1 (stereo not shown) [Example 39, 2-Amino-5-[3-chloro-4-(difluoromethoxy)phenyl]-3-methyl-5-(3-propoxyphenyl)-3,5-dihydro-4H-imidazol-4-one]
< 100 | CN1C(=O)C(c2cccc(OCCCF)c2)(c2ccc(OC(F)F)c(Cl)c2)N=C1N (stereo not shown) [Example 40, 2-Amino-5-[3-chloro-4-(difluoromethoxy)phenyl]-5-[3-(3-fluoropropoxy)phenyl]-3-methyl-3,5-dihydro-4H-imidazol-4-one]
< 100 | CCOc1cccc(C2(c3ccc(OC(F)F)c(C)c3)N=C(N)N(C)C2=O)c1 (stereo not shown) [Example 41, 2-Amino-5-[4-(difluoromethoxy)-3-methylphenyl]-5-(3-ethoxyphenyl)-3-methyl-3,5-dihydro-4H-imidazol-4-one]
< 100 | Cc1cc(C2(c3cccc(OCCF)c3)N=C(N)N(C)C2=O)ccc1OC(F)F (stereo not shown) [Example 42]
< 100 | Cc1cc(C2(c3cccc(OCC(F)F)c3)N=C(N)N(C)C2=O)ccc1OC(F)F (stereo not shown) [Example 43, 2-Amino-5-[3-(2,2-difluoroethoxy)phenyl]-5-[4-(difluoromethoxy)-3-methylphenyl]-3-methyl-3,5-dihydro-4H-imidazol-4-one]
< 100 | CCCOc1cccc(C2(c3ccc(OC(F)F)c(C)c3)N=C(N)N(C)C2=O)c1 (stereo not shown) [Example 44, 2-Amino-5-[4-(difluoromethoxy)-3-methylphenyl]-3-methyl-5-(3-propoxyphenyl)-3,5-dihydro-4H-imidazol-4-one]
< 100 | Cc1cc(C2(c3cccc(OCCCF)c3)N=C(N)N(C)C2=O)ccc1OC(F)F (stereo not shown) [Example 45, 2-Amino-5-[4-(difluoromethoxy)-3-methylphenyl]-5-[3-(3-fluoropropoxy)phenyl]-3-methyl-3,5-dihydro-4H-imidazol-4-one]
< 100 | Cc1cc(C2(c3ccc(F)c(C#CC(C)C)c3)N=C(N)N(C)C2=O)ccc1OC(F)F (stereo not shown) [Example 48, 2-Amino-5-[4-(difluoromethoxy)-3-methylphenyl]-5-[4-fluoro-3-(3-methylbut-1-yn-1-yl)phenyl]-3-methyl-3,5-dihydro-4H-imidazol-4-one]
< 100 | COC/C=C/c1cc(C2(c3ccc(OC(F)F)c(C)c3)N=C(N)N(C)C2=O)ccc1F (stereo not shown) [Example 57, 2-Amino-5-(4-difluoromethoxy-3-methylphenyl)-5-[4-fluoro-3-((E)-3-methoxypropenyl)phenyl]-3-methyl-3,5-dihydro-imidazol-4-one]
< 100 | Cc1cc(C2(c3ccc(F)c(/C=C/CCF)c3)N=C(N)N(C)C2=O)ccc1OC(F)F (stereo not shown) [Example 58, 2-Amino-5-[4-(difluoromethoxy)-3-methylphenyl]-5-[4-fluoro-3-((E)-4-fluorobut-1-enyl)phenyl]-3-methyl-3,5-dihydro-4H-imidazol-4-one]
< 100 | C/C=C/c1cc(C2(c3ccc(OC(F)F)c(C)c3)N=C(N)N(C)C2=O)ccc1F (stereo not shown) [Example 59, 2-Amino-5-[4-(difluoromethoxy)-3-methylphenyl]-5-[4-fluoro-3-((E)-prop-1-enyl)phenyl]-3-methyl-3,5-dihydro-4H-imidazol-4-one]
< 100 | COCC/C=C/c1cc(C2(c3ccc(OC(F)F)c(C)c3)N=C(N)N(C)C2=O)ccc1F (stereo not shown) [Example 60, 2-Amino-5-[4-(difluoromethoxy)-3-methylphenyl]-5-[4-fluoro-3-((E)-4-methoxy-but-1-enyl)phenyl]-3-methyl-3,5-dihydro-4H-imidazol-4-one]
< 100 | C/C=C/c1cccc(C2(c3ccc(OC(F)F)c(C)c3)N=C(N)N(C)C2=O)c1 (stereo not shown) [Example 61, 2-Amino-5-[4-(difluoromethoxy)-3-methylphenyl]-3-methyl-5-[((E)-3-prop-1-enyl)phenyl]-3,5-dihydro-4H-imidazol-4-one]

IC50 [nM] | Compound
< 100 | COC/C=C/c1cccc(C2(c3ccc(OC(F)F)c(C)c3)N=C(N)N(C)C2=O)c1 (stereo not shown) [Example 62, 2-Amino-5-[4-(difluoromethoxy)-3-methylphenyl]-5-[3-((E)-3-methoxyprop-1-enyl)phenyl]-3-methyl-3,5-dihydro-4H-imidazol-4-one]
< 100 | Cc1cc(C2(c3cccc(/C=C/CCF)c3)N=C(N)N(C)C2=O)ccc1OC(F)F (stereo not shown) [Example 63, 2-Amino-5-[4-(difluoromethoxy)-3-methylphenyl]-5-[3-((E)-4-fluorobut-1-enyl)phenyl]-3-methyl-3,5-dihydro-4H-imidazol-4-one]
< 100 | COCC/C=C/c1cccc(C2(c3ccc(OC(F)F)c(C)c3)N=C(N)N(C)C2=O)c1 (stereo not shown) [Example 64, 2-Amino-5-[4-(difluoromethoxy)-3-methylphenyl]-5-[3-((E)-4-methoxybut-1-enyl)phenyl]-3-methyl-3,5-dihydro-4H-imidazol-4-one]
< 100 | C/C=C/c1cccc(C2(c3ccc(OC(F)F)c(Cl)c3)N=C(N)N(C)C2=O)c1 (stereo not shown) [Example 65, 2-Amino-5-[3-chloro-4-(difluoromethoxy)phenyl]-3-methyl-5-[((E)-3-prop-1-enyl)phenyl]-3,5-dihydro-4H-imidazol-4-one]
< 100 | COC/C=C/c1cccc(C2(c3ccc(OC(F)F)c(Cl)c3)N=C(N)N(C)C2=O)c1 (stereo not shown) [Example 66, 2-Amino-5-[3-chloro-4-(difluoromethoxy)phenyl]-5-[3-((E)-3-methoxyprop-1-enyl)phenyl]-3-methyl-3,5-dihydro-4H-imidazol-4-one]
< 100 | COCC/C=C/c1cccc(C2(c3ccc(OC(F)F)c(Cl)c3)N=C(N)N(C)C2=O)c1 (stereo not shown) [Example 67, 2-Amino-5-[3-chloro-4-(difluoromethoxy)phenyl)-5-[3-((E)-4-methoxybut-1-enyl)phenyl]-3-methyl-3,5-dihydro-4H-imidazol-4-one]
< 100 | CN1C(=O)C(c2cccc(/C=C/CCF)c2)(c2ccc(OC(F)F)c(Cl)c2)N=C1N (stereo not shown) [Example 68, 2-Amino-5-[3-chloro-4-(difluoromethoxy)phenyl)-5-[3-((E)-4-fluoro-but-1-enyl)phenyl]-3-methyl-3,5-dihydro-4H-imidazol-4-one]
< 100 | COCC#Cc1cccc([C@@]2(c3ccc(OC(F)F)c(C)c3)N=C(N)N(C)C2=O)c1 [Example 69, (5S)-2-Amino-4-(4-(difluoromethoxy)-3-methylphenyl)-4-(3-(3-methoxyprop-1-ynyl)phenyl)-1-methyl-1H-imidazol-5(4H)-one]
110 to 1000 | COCC#Cc1cccc([C@]2(c3ccc(OC(F)F)c(C)c3)N=C(N)N(C)C2=O)c1 [Example 70, (5R)-2-Amino-4-(4-(difluoromethoxy)-3-methylphenyl)-4-(3-(3-methoxyprop-1-ynyl)phenyl)-1-methyl-1H-imidazol-5(4H)-one]
110 to 1000 | Cc1cc(C2(c3ccc(OC(F)F)c(C)c3)N=C(N)N(C)C2=O)ccc1OC(F)F [Example 71, 2-Amino-5,5-bis-[4-(difluoromethoxy)-3-methylphenyl]-3-methyl-3,5-dihydro-4H-imidazol-4-one]
110 to 1000 | CN1C(=O)C(c2ccccc2)(c2ccc(OC(F)F)c(CCF)c2)N=C1N (stereo not shown) [Example 74, 2-amino-5-[4-(difluoromethoxy)-3-(2-fluoroethyl)phenyl]-3-methyl-5-phenyl-3,5-dihydro-4H-imidazol-4-one]
110 to 1000 | Cc1cccc(C2(c3ccc(OC(F)F)c(C)c3)N=C(N)N(C)C2=O)c1 (stereo not shown) [Example 77, 2-amino-5-[4-(difluoromethoxy)-3-methylphenyl]-3-methyl-5-(3-methylphenyl)-3,5-dihydro-4H-imidazol-4-one]
< 100 | CCCC#Cc1cccc([C@@]2(c3ccc(OC(F)F)c(C)c3)N=C(N)N(C)C2=O)c1 [Example 78, (5S)-2-amino-5-[4-(difluoromethoxy)-3-methylphenyl]-3-methyl-5-(3-pent-1-yn-1-ylphenyl)-3,5-dihydro-4H-imidazol-4-one]
< 100 | CCC#Cc1cccc(C2(c3ccc(OC(F)F)c(C)c3)N=C(N)N(C)C2=O)c1 (stereo not shown) [Example 81, 2-amino-4-(3-(but-1-ynyl)phenyl)-4-(4-(difluoromethoxy)-3-methylphenyl)-1-methyl-1H-imidazol-5(4H)-one]
< 100 | CCC#Cc1cc(C2(c3ccc(OC(F)F)c(C)c3)N=C(N)N(C)C2=O)ccc1F (stereo not shown) [Example 82, 2-amino-5-(3-but-1-yn-1-yl-4-fluorophenyl)-5-[4-(difluoromethoxy)-3-methylphenyl]-3-methyl-3,5-dihydro-4H-imidazol-4-one]
